From the METLIN SMRT retention time set (Domingo-Almenara et al. 2019) come the findings set out here.

This series is described as follows: gradient 5% acetonitrile 3 min, to 50% in 2 min, to 85% in 15 min, held 3 min, 100 µL/min. The conditions noted are these: column: Zorbax Extend-C18 2.1 x 50 mm; eluents: water / acetonitrile, 0.1% formic acid. In short, it runs like this: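 The mobile phases were water and acetonitrile, each with 0.1% formic acid, pumped at 100 μL/min through a Zorbax Extend-C18 column (2.1 × 50 mm, 1.8 μm). Pure standards were injected as mixtures of ~100 molecules and detected by a quadrupole time-of-flight mass spectrometer in positive and negative ionization mode. Retention time came from computationally picked adduct peaks, each inspected by hand.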
The compound `Cc1ccc2ncn(C3CCN(S(=O)(=O)c4ccc(C)c(F)c4)CC3)c(=O)c2c1` showed an RP-LC retention time of 968 s.
The same measure for `Cc1nc(N)n(CC(=O)NCc2ccc(F)cc2)c(=O)c1C`: 842 s; for `COc1cc(CC(=O)N2CCc3cc(-c4csc(C)n4)ccc32)cc(OC)c1`: 1020 s; for `COc1ccc(-c2nc3ccc(C)cn3c2Nc2ccccc2C)cc1`: 761 s.
In turn, `O=C(CN1C(=O)c2ccccc2C1=O)N1CCc2ccccc2C1` registered an RP-LC retention time of 755 s.
The figure for `COc1ccc(C(=O)N(Cc2cc(OC)c(OC)c(OC)c2)C2CCS(=O)(=O)C2)cc1Cl` (centres undefined) is 817 s; for `CC(C)NC[C@H](O)COc1cccc2[nH]ccc12` it is 603 s.
The compound `Cc1cc(NC(=O)C2CCCN(c3nnc4cccc(C)n34)C2)ccc1F` (centres undefined) yielded an RP-LC retention time of 721 s.
For `Cc1ccc(CNC(=O)c2ccc(NC(=O)C3CCC3)cc2N2CCOCC2)o1`, the RP-LC retention time was 818 s.
The same measure for `CCN(CCNC(=O)CCc1cc2ccc(C)cc2[nH]c1=O)Cc1ccccc1`: 639 s; for `Cc1cc(-c2ccc(S(=O)(=O)N3CCC(C(=O)NCC4CCCCC4)CC3)o2)n[nH]1`: 840 s; for `COCCN1CCC(N2CCN(S(=O)(=O)c3ccccc3Cl)CC2)C1=O` (centres undefined): 567 s.
For `CCCn1cc(S(=O)(=O)NCc2cccc(F)c2)c2cccnc21`, the RP-LC retention time worked out at 936 s.
The compound `CCOCCCNC(=O)N1CC(Oc2ccc(-c3nc(C)no3)cc2)C1` registered an RP-LC retention time of 724 s.
`CCn1c(=O)sc2cc(S(=O)(=O)N3CCC(C(=O)Nc4cc(C)cc(C)c4)CC3)ccc21` came in with an RP-LC retention time of 932 s.
The figure for `Cc1cc(C)cc(N2CCC(NC(=O)c3ccc(Cl)s3)C2=O)c1` (centres undefined) is 956 s.
The same measure for `Cn1ccnc1C(=O)N1CCc2nn(CC3CC3)c(=O)n2CC1`: 565 s; for `COC1CN(C2CCN(C(=O)c3sc(C)nc3C)CC2)C12CCOCC2` (centres undefined): 796 s.
On to `COc1cccc(CC(=O)Nc2cnn(C)c(=O)c2N2CCOCC2)c1`, for which the RP-LC retention time is 725 s.
The same measure for `COC(=O)c1c(C)[nH]c(C(=O)N2CCCC(C(=O)NCc3ccc(OC)cc3)C2)c1C` (centres undefined): 735 s; for `Cc1sc(NC(=O)Cc2ccccc2)nc1-c1ccc2c(c1)NC(=O)CO2`: 830 s; for `COc1ccc(-c2ncc3c(n2)CCN(S(=O)(=O)Cc2ccc(C)cc2)C3)cc1`: 1050 s.
The same measure for `CC(C)CC(=O)Nc1ccc(-n2cnc(C(=O)NC3CCCC3)c2)nc1`: 772 s; for `COc1ccc(-c2nc(-c3cn(-c4ccc(F)cc4)nn3)no2)c(OC)c1`: 974 s.
`CC(C)NC(=O)N1CCCN(S(C)(=O)=O)CC1` gave an RP-LC retention time of 598 s.
`CN(Cc1ccccc1)C(=O)c1cn(-c2cc(N3CCSCC3)ncn2)cn1` displayed an RP-LC retention time of 869 s.
With `CCOc1ccc(-c2nc3ncccn3c2NCc2ccccc2)cc1`, the RP-LC retention time was determined as 758 s.
The figure for `Cc1cccc(CN2N=C(C(=O)N3CCC(C)CC3)S(=O)(=O)c3ccccc32)c1` is 1090 s; for `O=c1c2sccc2n(Cc2nc(-c3ccccc3)no2)c(=O)n1Cc1ccccc1` it is 985 s; for `O=C(Nc1ccc(N2CCOCC2)cc1)C1CCCN(c2ncc(-c3cccc(F)c3)cn2)C1` (centres undefined) it is 969 s.
`CCC(=O)N1CCc2cc(C(=O)N3CCOCC3)ccc21` displayed an RP-LC retention time of 637 s.
The same measure for `COc1ccc(OC)c(NC(=O)N2CCC(c3cnn(-c4ccccc4)c3)CC2)c1`: 956 s; for `Cc1sc2ccn(Cc3ccc(F)cc3)c(=O)c2c1C(=O)N1CCOCC1`: 713 s; for `COc1ccc(CNC(=O)c2cc3c(s2)CCN(C(C)=O)C3)cc1`: 696 s.
`Nc1nc(Nc2ccc3c(c2)CC[C@@H](N2CCCC2)CC3)nn1-c1cc2c(nn1)-c1ccccc1CCC2`: the RP-LC retention time was 760 s.
The same measure for `COc1ccc(-c2nc3ccc(Cl)cn3c2Nc2ccccc2C)cc1`: 832 s; for `CCc1ccc(-c2nc(-c3ccc4nnc(CC)n4c3)no2)cc1`: 1140 s.
As for `CCn1c(=O)c(N2CCN(C(=O)Nc3cc(Cl)c(OC)cc3OC)CC2)nc2cccnc21`, the RP-LC retention time is 982 s.
For the compound `CCSCCOC(=O)C1=C(C)NC2=C(C(=O)CCC2)C1c1ccccc1OC` (centres undefined), the RP-LC retention time came to 727 s.
The figure for `COC(=O)c1ccc2c(=O)n(-c3ccccc3)c(N3CCCCCC3)nc2c1` is 1240 s; for `Cc1ccc(CNc2nnc(-c3nc(C4CC4)no3)c3ccccc23)cc1` it is 958 s; for `Cc1cc(N2CCCCC2)nc(N2CCN(C(=O)CC3CCCC3)CC2)n1` it is 738 s.
In turn, `CCN1CCC2(CC1)N=C(c1ccc(F)cc1)CC(c1cccc(OC)c1O)N2` (centres undefined) gave an RP-LC retention time of 592 s.
The same measure for `CCOc1ccc(C(=O)NCc2noc(-c3cccc(Cl)c3)n2)cc1`: 963 s; for `O=C(c1ccc2c(c1)OCCO2)N1CCCCC1`: 839 s.
`Cc1nc(-c2csc(S(=O)(=O)N3CCC(C(=O)NCCN4CCOCC4)CC3)c2)no1` had an RP-LC retention time of 596 s.
As for `Cc1sc(C)c(S(=O)(=O)N2CCCc3ccccc32)c1-c1cc(C(F)(F)F)on1`, the RP-LC retention time was found to be 1290 s.
`Cc1ccc(NS(=O)(=O)c2cc3n(c2)CCCNC3=O)c(Cl)c1` gave an RP-LC retention time of 686 s.
The figure for `COC(=O)C1=C(C)NC(C)=C(C(=O)OC(C)(C)CN(C)CCC(c2ccccc2)c2ccccc2)C1c1cccc([N+](=O)[O-])c1` (centres undefined) is 1010 s.
The figure for `CCn1ncn2cc(S(=O)(=O)Nc3ccc(C)c(C)c3)cc2c1=O` is 930 s; for `Cc1cccc(NC(=O)N2c3ccccc3CC2c2nc(C3CC3)no2)c1C` (centres undefined) it is 1100 s.
As for `CCOCCOC1CCN(C(=O)c2sccc2C)CC1`, the RP-LC retention time worked out at 741 s.
The same measure for `COc1cc(-c2nc3cc(C)ccn3c2Nc2ccc(C)cc2)ccc1O`: 686 s; for `COc1cccc(C2CC(c3cccc(NS(C)(=O)=O)c3)=NN2C(=O)C(C)(C)C)c1O` (centres undefined): 820 s.
`CC(C)(C)c1nnc(NC(=O)C2CCN(C(=O)c3ccc(F)cc3)CC2)s1` gave an RP-LC retention time of 776 s.
In turn, `CCC(=O)N1CCc2cc(C(=O)N(C)C)ccc21` registered an RP-LC retention time of 673 s.
The same measure for `O=C(Nc1nc(-c2ccc(F)cc2F)cs1)c1ccccc1F`: 1130 s.
`C=CCNC(=O)NC1CCN(C2=NS(=O)(=O)C(c3cccc(Cl)c3)=C2C)CC1` came in with an RP-LC retention time of 861 s.
On to `COCc1cc(=O)n(CC(=O)Nc2ccc(C)cc2C)c(N2CCOCC2)n1`, for which the RP-LC retention time is 844 s.
